# Experimental data from patent US8192962B2, “Processes for detecting toxic substances” (Daikin Industries, Ltd., priority 2001, dated 2012).
# System: Detoxification protein genes
# Assay: DNA chip mRNA expression in yeast, detoxification protein genes (Table 8)
# Assay type: cell-based, Saccharomyces cerevisiae S288C
# In short: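 In this screen, yeast in logarithmic growth are challenged for two hours with a toxic substance at a non-lethal inhibitory concentration. Their mRNA, converted to Cy3- or Cy5-labeled cDNA, hybridizes at 65° C. to a chip spanning every yeast gene, and expression is expressed as a ratio to untreated cells.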
compound,measurement,setting,value
"C[S+](C)[O-] [(15), dimethylsulfoxide]",The level of expressed mRNA in the presence of chemical substance/The level of expressed mRNA in the absence of chemical substance,yeast gene YBL064C,1.3
same,The level of expressed mRNA in the presence of chemical substance/The level of expressed mRNA in the absence of chemical substance,yeast gene YBR008C,0.8
same,The level of expressed mRNA in the presence of chemical substance/The level of expressed mRNA in the absence of chemical substance,yeast gene YBR244W,0.4
same,The level of expressed mRNA in the presence of chemical substance/The level of expressed mRNA in the absence of chemical substance,yeast gene YBR293W,3.1
same,The level of expressed mRNA in the presence of chemical substance/The level of expressed mRNA in the absence of chemical substance,yeast gene YCR083W,1.0
same,The level of expressed mRNA in the presence of chemical substance/The level of expressed mRNA in the absence of chemical substance,yeast gene YDL100C,1.0
same,The level of expressed mRNA in the presence of chemical substance/The level of expressed mRNA in the absence of chemical substance,yeast gene YDR256C,1.0
same,The level of expressed mRNA in the presence of chemical substance/The level of expressed mRNA in the absence of chemical substance,yeast gene YDR453C,2.3
same,The level of expressed mRNA in the presence of chemical substance/The level of expressed mRNA in the absence of chemical substance,yeast gene YDR513W,1.3
same,The level of expressed mRNA in the presence of chemical substance/The level of expressed mRNA in the absence of chemical substance,yeast gene YDR538W,1.0
same,The level of expressed mRNA in the presence of chemical substance/The level of expressed mRNA in the absence of chemical substance,yeast gene YER185W,1.7
same,The level of expressed mRNA in the presence of chemical substance/The level of expressed mRNA in the absence of chemical substance,yeast gene YGL013C,1.0
same,The level of expressed mRNA in the presence of chemical substance/The level of expressed mRNA in the absence of chemical substance,yeast gene YGR088W,0.7
same,The level of expressed mRNA in the presence of chemical substance/The level of expressed mRNA in the absence of chemical substance,yeast gene YGR138C,4.5
same,The level of expressed mRNA in the presence of chemical substance/The level of expressed mRNA in the absence of chemical substance,yeast gene YGR197C,1.0
same,The level of expressed mRNA in the presence of chemical substance/The level of expressed mRNA in the absence of chemical substance,yeast gene YGR209C,1.3
same,The level of expressed mRNA in the presence of chemical substance/The level of expressed mRNA in the absence of chemical substance,yeast gene YHL040C,3.4
same,The level of expressed mRNA in the presence of chemical substance/The level of expressed mRNA in the absence of chemical substance,yeast gene YHR008C,1.7
same,The level of expressed mRNA in the presence of chemical substance/The level of expressed mRNA in the absence of chemical substance,yeast gene YHR048W,0.9
same,The level of expressed mRNA in the presence of chemical substance/The level of expressed mRNA in the absence of chemical substance,yeast gene YHR053C,0.3
same,The level of expressed mRNA in the presence of chemical substance/The level of expressed mRNA in the absence of chemical substance,yeast gene YHR055C,0.5
same,The level of expressed mRNA in the presence of chemical substance/The level of expressed mRNA in the absence of chemical substance,yeast gene YJL101C,0.5
same,The level of expressed mRNA in the presence of chemical substance/The level of expressed mRNA in the absence of chemical substance,yeast gene YJR104C,1.3
same,The level of expressed mRNA in the presence of chemical substance/The level of expressed mRNA in the absence of chemical substance,yeast gene YKL026C,0.8
same,The level of expressed mRNA in the presence of chemical substance/The level of expressed mRNA in the absence of chemical substance,yeast gene YKL064W,0.7
same,The level of expressed mRNA in the presence of chemical substance/The level of expressed mRNA in the absence of chemical substance,yeast gene YKR066C,0.6
same,The level of expressed mRNA in the presence of chemical substance/The level of expressed mRNA in the absence of chemical substance,yeast gene YLL028W,3.1
same,The level of expressed mRNA in the presence of chemical substance/The level of expressed mRNA in the absence of chemical substance,yeast gene YLR043C,0.5
same,The level of expressed mRNA in the presence of chemical substance/The level of expressed mRNA in the absence of chemical substance,yeast gene YLR046C,0.8
same,The level of expressed mRNA in the presence of chemical substance/The level of expressed mRNA in the absence of chemical substance,yeast gene YML116W,1.9
same,The level of expressed mRNA in the presence of chemical substance/The level of expressed mRNA in the absence of chemical substance,yeast gene YMR038C,0.6
same,The level of expressed mRNA in the presence of chemical substance/The level of expressed mRNA in the absence of chemical substance,yeast gene YNL241C,7.0
same,The level of expressed mRNA in the presence of chemical substance/The level of expressed mRNA in the absence of chemical substance,yeast gene YNL259C,0.7
same,The level of expressed mRNA in the presence of chemical substance/The level of expressed mRNA in the absence of chemical substance,yeast gene YOL158C,0.9
same,The level of expressed mRNA in the presence of chemical substance/The level of expressed mRNA in the absence of chemical substance,yeast gene YOR153W,3.6
same,The level of expressed mRNA in the presence of chemical substance/The level of expressed mRNA in the absence of chemical substance,yeast gene YOR251C,0.6
same,The level of expressed mRNA in the presence of chemical substance/The level of expressed mRNA in the absence of chemical substance,yeast gene YOR273C,0.8
same,The level of expressed mRNA in the presence of chemical substance/The level of expressed mRNA in the absence of chemical substance,yeast gene YPR200C,0.7
